Target: T1, sweet taste receptor (T1R2, T1R3 endogenous) (Homo sapiens, UniProt Q7RTX0+Q8TE23)
T1 construct: endogenous in cells; host or cells: HuTu (ATCC HTB-40), H716 (ATCC CCL-251), HEK 293T (ATCC CRL-11268); some with prior UV treatment
T1 sequence (Q8TE23 20-839): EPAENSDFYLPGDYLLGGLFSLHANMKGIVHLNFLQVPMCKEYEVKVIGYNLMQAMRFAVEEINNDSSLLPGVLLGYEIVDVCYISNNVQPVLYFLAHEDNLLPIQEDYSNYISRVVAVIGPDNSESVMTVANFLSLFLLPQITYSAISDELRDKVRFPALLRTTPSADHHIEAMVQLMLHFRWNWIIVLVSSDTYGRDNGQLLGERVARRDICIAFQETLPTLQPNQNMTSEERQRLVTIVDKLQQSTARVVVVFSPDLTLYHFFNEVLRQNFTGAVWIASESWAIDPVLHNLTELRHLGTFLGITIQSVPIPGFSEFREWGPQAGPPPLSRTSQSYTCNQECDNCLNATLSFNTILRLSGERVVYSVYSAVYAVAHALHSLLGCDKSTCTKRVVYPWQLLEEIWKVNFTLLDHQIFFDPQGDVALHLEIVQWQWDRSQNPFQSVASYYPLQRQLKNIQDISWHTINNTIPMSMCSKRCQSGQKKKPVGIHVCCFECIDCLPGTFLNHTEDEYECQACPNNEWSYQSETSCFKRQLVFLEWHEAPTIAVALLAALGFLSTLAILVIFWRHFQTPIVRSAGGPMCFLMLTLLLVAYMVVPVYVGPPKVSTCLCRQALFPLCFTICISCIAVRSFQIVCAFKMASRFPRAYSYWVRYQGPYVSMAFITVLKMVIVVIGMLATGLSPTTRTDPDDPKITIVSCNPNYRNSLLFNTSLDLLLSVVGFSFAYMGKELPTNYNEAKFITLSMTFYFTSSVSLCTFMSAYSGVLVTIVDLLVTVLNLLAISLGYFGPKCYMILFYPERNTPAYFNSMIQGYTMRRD
T1 sequence (Q7RTX0 21-852): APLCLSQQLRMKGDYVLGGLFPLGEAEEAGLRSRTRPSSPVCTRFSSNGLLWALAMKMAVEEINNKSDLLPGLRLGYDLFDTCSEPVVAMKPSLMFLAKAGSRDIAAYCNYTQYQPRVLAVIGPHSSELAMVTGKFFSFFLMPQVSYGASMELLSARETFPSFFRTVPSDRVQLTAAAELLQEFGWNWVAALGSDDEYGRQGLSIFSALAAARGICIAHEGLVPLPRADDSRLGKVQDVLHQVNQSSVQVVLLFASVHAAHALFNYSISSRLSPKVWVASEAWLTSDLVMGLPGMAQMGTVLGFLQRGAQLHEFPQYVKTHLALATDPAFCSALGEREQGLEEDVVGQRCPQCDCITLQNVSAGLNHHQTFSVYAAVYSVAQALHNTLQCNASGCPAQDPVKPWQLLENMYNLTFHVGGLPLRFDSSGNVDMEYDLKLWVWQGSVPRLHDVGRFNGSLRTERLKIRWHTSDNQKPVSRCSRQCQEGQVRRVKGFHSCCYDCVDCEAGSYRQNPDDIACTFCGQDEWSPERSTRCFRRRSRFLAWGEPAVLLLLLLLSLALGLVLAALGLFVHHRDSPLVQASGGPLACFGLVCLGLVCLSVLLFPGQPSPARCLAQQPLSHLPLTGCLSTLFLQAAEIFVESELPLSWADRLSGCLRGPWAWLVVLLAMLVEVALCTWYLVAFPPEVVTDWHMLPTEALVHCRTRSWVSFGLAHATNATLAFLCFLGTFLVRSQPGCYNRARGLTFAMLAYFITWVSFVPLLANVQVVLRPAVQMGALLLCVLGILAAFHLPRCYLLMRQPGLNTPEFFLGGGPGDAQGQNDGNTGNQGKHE
Assay: Calcium flux assay, cells endogenously expressing at least one sweet receptor subunit
Assay type: cell-based
Details: 15 mM fructose
Procedure: Populations of cells each resulting from the expansion of single isolated cells then were characterized for their ability to respond to a sweet ligand using functional cell-based assays. 15 mM fructose was used in these experiments. Depending on the cell type, different conditions were used as described below.
Forty-eight hours prior to assay, cells were seeded in growth media (L15 media (Sigma #L5520) supplemented with 10% serum (Sigma #SAC1203C), 4 mM L-Glutamine (Sigma G7513), 10 mM HEPES (Sigma H0887), and a […] of penicillin/streptomycin solution (final concentration 100 units penicillin/100 μG streptomycin per mL) (Sigma # P4458) at a high density, from 12 to 20 million cells, in 10 cm dishes. Cells were dissociated from the culture matrix and were seeded at 35,000 cells per well 24 hours prior to assay in 384 well plates. Media was removed after 18 to 24 hours. A calcium-sensitive fluorescent dye (Fluo-4, Invitrogen) diluted in sweet assay buffer (130 mM NaCl, 1.1mMKH2PO4, 1.3 mM CaCl, 20 mM HEPES and 3mMNaHPO4*7H20) was added then to each well. Cells were incubated in this media for 1 hour. Plates then were loaded on a high throughput plate reader (Hamamatsu FDSS). […] Calcium flux or assay response was detected prior to, during and following addition of sweet assay buffer containing fructose to each well for a final concentration of 15 mM fructose. […]
Alternatively, cells were dissociated from the culture matrix and were seeded at cell densities from 2,500 to 20,000 per well for 24 or 48 hours prior to assay in Eagle's Minimal Essential Media (Sigma #D5650) containing 10% FBS (Sigma #2442), 2 mM L-Glutamine (Sigma #G7513) and 1 mM Sodium Pyruvate (Sigma #S8636) or a mixture of equal parts of this media and L-15 media (Sigma, L5520) in a 384 well plate. […] Plates then were loaded on a high throughput plate reader (Hamamatsu FDSS). […] Calcium flux or assay response was detected prior to, during and following addition of sweet assay buffer containing fructose to each well for a final concentration of 15 mM fructose. […]

Measured: response in calcium flux reporter assay

O=C(CO)[C@@H](O)[C@H](O)[C@H](O)CO [fructose]
responding to fructose: 293T cells, FIG. 28C | H716 cells, FIG. 28B | HuTu cells, FIG. 28A

— patent publication US20170052170A1, “NOVEL CELL LINES AND METHODS” (priority 2009, published 2017)
